Test results taken from patent US9624161B2 (priority 2009, dated 2017).
Entries after “also recorded” stand apart in the source; their conditions may differ.

Legend:
[1] = target: T1, glucocorticoid receptor (GR) (Rattus norvegicus, UniProt P06536); test: Nuclear receptor cross-reactivity transcriptional activation assay; type: cell-based
T1 construct: expressed in transfected cells
T1 sequence (P06536 1-795): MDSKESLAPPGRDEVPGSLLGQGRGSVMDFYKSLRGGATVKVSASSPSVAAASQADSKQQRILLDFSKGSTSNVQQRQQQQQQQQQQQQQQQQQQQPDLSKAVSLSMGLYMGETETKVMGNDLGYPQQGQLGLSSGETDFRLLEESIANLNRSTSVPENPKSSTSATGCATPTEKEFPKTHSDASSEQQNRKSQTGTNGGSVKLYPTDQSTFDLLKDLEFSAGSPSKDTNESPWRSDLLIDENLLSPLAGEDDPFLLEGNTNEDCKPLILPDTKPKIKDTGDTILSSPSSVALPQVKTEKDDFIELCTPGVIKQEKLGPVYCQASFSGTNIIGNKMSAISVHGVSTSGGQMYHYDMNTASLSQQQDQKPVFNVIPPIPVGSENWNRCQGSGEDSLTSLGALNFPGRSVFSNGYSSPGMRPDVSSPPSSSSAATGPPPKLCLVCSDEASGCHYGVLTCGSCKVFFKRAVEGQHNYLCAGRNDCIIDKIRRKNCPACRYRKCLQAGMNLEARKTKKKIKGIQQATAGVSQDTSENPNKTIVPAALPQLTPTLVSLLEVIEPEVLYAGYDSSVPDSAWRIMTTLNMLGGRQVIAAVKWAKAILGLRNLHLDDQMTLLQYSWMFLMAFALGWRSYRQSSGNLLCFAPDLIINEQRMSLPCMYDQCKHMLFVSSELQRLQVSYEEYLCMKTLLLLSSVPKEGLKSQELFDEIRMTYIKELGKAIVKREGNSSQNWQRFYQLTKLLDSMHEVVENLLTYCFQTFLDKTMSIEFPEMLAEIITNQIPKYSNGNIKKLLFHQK
Source text: (§1) Compound IV was screened for cross-reactivity against rat isoforms of glucocorticoid receptor (GR), mineralocorticoids receptor (MR), progesterone receptor (PR), androgen receptor (AR) and human isoforms of farnesoid X receptor (FXR), liver X receptor (LXR), peroxisome proliferator-activated receptors (PPAR-α and PPAR-γ), and retinoid X receptor (RXR-α) in both agonist and antagonist modes in transcriptional activation assays.

[2] = target: T2, farnesoid X receptor (FXR) (Homo sapiens, UniProt Q96RI1); test: as above; type: cell-based; conditions: agonist and antagonist modes
T2 construct: expressed in transfected cells
T2 sequence (Q96RI1 whole entry): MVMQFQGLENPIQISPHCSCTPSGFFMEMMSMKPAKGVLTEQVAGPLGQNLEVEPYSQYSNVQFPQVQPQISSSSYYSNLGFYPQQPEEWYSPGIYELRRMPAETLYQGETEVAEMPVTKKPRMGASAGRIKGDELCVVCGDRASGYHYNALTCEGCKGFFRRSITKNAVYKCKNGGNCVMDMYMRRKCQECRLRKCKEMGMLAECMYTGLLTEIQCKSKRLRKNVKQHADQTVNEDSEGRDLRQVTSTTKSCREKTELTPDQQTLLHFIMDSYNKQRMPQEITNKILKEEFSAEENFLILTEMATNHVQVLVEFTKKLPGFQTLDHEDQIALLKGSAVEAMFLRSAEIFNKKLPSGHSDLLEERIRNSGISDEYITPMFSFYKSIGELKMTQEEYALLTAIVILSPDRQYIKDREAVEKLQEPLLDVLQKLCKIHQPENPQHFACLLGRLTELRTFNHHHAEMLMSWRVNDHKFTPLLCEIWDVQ
Source text: as §1

[3] = target: T3, PPAR-α (Homo sapiens, UniProt Q07869); test: as above; type: cell-based; conditions: agonist and antagonist modes
T3 construct: expressed in transfected cells
T3 sequence (Q07869 whole entry): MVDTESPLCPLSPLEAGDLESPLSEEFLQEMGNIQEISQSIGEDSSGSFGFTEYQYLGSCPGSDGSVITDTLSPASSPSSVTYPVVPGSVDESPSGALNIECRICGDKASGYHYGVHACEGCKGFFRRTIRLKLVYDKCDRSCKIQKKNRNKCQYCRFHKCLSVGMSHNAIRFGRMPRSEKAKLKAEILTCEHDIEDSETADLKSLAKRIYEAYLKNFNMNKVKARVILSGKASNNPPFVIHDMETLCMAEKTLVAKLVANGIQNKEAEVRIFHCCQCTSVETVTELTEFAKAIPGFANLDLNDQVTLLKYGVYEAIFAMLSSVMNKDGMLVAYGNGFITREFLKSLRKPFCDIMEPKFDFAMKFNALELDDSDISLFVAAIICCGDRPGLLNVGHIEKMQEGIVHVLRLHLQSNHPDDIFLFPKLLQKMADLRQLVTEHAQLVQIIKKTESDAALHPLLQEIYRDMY
Source text: as §1

[4] = target: T4, mineralocorticoids receptor (MR) (Rattus norvegicus, UniProt P22199); test: as above; type: cell-based; conditions: agonist and antagonist modes
T4 construct: expressed in transfected cells
T4 sequence (P22199 whole entry): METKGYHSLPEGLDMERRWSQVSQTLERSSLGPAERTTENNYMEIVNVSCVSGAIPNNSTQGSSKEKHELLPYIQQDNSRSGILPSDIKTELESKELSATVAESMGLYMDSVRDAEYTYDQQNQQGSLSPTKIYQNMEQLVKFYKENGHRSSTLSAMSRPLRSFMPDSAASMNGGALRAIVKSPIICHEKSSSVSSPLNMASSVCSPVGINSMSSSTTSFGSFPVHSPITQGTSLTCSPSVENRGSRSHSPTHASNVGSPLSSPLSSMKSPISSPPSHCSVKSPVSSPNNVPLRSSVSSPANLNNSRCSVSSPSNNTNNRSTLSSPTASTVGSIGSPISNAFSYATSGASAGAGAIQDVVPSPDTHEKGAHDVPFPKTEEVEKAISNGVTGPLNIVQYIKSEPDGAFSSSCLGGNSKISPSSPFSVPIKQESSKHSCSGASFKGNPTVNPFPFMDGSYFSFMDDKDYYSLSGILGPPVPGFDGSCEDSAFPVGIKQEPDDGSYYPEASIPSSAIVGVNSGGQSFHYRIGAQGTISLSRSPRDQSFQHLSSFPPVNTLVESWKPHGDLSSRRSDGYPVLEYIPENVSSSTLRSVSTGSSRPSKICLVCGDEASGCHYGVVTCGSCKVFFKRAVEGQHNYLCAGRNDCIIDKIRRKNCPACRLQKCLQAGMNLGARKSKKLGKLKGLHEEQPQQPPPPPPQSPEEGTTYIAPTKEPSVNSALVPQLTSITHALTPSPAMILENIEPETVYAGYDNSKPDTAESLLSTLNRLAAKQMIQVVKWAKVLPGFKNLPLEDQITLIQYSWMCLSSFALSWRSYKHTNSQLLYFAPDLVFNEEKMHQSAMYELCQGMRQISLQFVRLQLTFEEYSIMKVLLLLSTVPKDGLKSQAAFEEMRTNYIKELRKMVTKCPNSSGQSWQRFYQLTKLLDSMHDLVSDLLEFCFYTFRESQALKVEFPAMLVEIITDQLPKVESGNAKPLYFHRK
Source text: as §1

[5] = target: T5, retinoid X receptor (RXR-α) (Homo sapiens, UniProt P19793); test: as above; type: cell-based; conditions: agonist and antagonist modes
T5 construct: expressed in transfected cells
T5 sequence (P19793 whole entry): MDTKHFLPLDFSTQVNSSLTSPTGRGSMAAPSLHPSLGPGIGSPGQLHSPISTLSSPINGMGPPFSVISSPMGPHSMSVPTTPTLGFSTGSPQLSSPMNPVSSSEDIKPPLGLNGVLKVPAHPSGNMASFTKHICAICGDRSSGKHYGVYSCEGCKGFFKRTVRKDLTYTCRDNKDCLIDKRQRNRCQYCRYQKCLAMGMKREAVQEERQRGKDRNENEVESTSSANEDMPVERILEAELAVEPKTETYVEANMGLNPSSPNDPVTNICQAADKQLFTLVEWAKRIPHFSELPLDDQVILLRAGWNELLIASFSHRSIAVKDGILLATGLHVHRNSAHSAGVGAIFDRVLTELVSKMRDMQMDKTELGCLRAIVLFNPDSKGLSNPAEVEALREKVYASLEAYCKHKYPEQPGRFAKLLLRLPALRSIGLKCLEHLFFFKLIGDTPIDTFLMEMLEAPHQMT
Source text: as §1

[6] = target: T6, progesterone receptor (PR) (Rattus norvegicus, UniProt Q63449); test: as above; type: cell-based; conditions: agonist and antagonist modes
T6 construct: expressed in transfected cells
T6 sequence (Q63449 whole entry): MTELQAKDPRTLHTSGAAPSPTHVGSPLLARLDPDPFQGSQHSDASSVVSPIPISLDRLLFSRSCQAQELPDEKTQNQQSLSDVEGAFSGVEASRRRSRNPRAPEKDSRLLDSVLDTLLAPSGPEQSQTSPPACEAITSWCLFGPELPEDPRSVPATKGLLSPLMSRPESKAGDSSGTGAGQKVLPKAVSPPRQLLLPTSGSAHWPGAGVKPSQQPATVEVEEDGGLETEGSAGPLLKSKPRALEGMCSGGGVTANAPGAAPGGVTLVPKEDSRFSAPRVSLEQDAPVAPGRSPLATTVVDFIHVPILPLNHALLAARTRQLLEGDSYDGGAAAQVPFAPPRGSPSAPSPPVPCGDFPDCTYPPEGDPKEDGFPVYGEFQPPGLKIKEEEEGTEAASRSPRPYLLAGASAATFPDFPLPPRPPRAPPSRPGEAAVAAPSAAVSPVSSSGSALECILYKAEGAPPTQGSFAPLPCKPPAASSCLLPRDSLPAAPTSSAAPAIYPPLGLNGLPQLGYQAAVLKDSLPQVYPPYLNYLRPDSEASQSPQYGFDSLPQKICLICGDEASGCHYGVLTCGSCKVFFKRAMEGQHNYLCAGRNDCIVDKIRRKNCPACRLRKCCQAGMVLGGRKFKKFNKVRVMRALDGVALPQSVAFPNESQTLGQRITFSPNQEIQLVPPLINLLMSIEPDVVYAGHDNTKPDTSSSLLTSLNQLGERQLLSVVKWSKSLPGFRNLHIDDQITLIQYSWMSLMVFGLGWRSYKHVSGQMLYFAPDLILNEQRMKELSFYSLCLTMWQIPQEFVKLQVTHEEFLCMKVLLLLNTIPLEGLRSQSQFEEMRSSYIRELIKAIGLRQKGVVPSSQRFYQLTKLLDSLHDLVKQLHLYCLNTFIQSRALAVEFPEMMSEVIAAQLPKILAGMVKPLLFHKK
Source text: as §1

[7] = target: T7, androgen receptor (AR) (Rattus norvegicus, UniProt P15207); test: as above; type: cell-based
T7 construct: expressed in transfected cells
T7 sequence (P15207 whole entry S389L): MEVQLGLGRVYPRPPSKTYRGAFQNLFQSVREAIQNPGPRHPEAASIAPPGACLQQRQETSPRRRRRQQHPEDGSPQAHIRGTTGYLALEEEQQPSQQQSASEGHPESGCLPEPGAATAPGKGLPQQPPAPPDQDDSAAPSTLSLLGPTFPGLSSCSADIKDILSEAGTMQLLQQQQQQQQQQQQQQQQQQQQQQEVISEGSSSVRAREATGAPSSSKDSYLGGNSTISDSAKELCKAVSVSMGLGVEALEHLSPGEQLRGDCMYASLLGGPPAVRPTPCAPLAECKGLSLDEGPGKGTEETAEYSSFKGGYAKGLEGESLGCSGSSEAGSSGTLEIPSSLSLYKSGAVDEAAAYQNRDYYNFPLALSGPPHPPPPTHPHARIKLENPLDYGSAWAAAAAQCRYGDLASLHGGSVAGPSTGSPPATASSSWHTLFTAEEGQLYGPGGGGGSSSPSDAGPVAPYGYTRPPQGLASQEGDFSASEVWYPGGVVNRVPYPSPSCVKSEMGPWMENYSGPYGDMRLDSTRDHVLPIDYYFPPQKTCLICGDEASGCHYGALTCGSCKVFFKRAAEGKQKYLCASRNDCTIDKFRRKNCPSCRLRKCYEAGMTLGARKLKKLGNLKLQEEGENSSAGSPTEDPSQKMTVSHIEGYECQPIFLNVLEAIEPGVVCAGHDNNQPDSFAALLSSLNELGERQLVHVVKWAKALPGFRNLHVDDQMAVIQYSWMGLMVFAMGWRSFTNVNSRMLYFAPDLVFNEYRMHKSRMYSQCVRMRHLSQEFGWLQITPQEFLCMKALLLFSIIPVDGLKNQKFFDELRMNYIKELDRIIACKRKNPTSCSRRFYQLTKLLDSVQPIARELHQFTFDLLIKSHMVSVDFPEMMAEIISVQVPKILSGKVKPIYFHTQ
Source text: as §1

[8] = target: T8, PPAR-γ (Homo sapiens, UniProt P37231); test: as above; type: cell-based; conditions: agonist and antagonist modes
T8 construct: expressed in transfected cells
T8 sequence (P37231 whole entry): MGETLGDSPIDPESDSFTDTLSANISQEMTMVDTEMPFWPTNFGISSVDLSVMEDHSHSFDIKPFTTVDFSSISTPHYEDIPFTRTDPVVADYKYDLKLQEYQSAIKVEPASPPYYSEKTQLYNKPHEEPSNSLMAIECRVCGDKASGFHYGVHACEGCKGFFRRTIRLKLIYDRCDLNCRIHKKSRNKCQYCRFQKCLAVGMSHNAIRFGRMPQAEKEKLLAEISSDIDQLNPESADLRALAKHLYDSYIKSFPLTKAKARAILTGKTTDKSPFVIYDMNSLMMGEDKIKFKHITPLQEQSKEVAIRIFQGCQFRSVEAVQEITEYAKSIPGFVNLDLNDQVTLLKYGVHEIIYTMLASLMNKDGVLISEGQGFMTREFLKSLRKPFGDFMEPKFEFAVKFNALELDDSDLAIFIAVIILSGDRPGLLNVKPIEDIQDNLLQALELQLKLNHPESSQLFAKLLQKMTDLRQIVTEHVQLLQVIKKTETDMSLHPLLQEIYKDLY
Source text: as §1

[9] = test system: male Sprague-Dawley rats; test: Recovery of testosterone levels after 3-day oral dosing in rats; type: in vivo, rat; conditions: 1 mg/kg oral for three days; no recovery
Source text: (§2) Thirty-five (35) male Sprague-Dawley rats weighing approximately 200 g were maintained on a 12-h light/dark cycle with food (2016 Teklad Global 16% Protein Rodent Diet, Harlan, Madison, Wis.) and water available ad libitum. The animal protocol was reviewed and approved by the Institutional Animal Care and Use Committee of the University of Tennessee.
The test article for this study was weighed and dissolved in PEG 300 (100%) (Acros Organics, NJ) to prepare the appropriate dose formulations. Animals were randomly assigned to one of the […] treatment groups (n=5 animals/group). The animals were housed in groups of 2 to 3 animals per cage. Group 1 was sacrificed at the initiation of the study (Day 1) for determination of baseline testosterone levels in intact animals. Groups 2-7 received daily doses of 1, 3, or 30 mg/kg via oral gavage (˜200 uL) for three days. Groups 2, 3, and 4 were sacrificed on Day 4 to measure maximal testosterone suppression. Groups 5, 6, and 7 were allowed to recover for 14 days with a drug free washout period.

[10] = test system: intact and orchiectomized (ORX) male Sprague-Dawley rats; test: Suppression of LH and testosterone in intact and ORX rats, 14-day subcutaneous dosing; type: in vivo, rat; conditions: for Serum testosterone: LLOQ 0.08 ng/mL
Description: An in vivo dose-response study was conducted to evaluate the effect of Compound IV on LH suppression in intact and orchiectomized (ORX) male rats.
as §2, with “Male” for “Thirty-five (35) male”
The test article for this study was weighed and dissolved in 10% DMSO (Fisher) diluted with PEG 300 (Acros Organics, NJ) to prepare the appropriate dose formulations. For this study, sixty (60) male Sprague-Dawley rats were randomized by body weight, and assigned to one of the twelve treatment groups (n=5 animals/group). The animals were housed in groups of 2 to 3 animals per cage. Control groups (intact and orchidectomized (ORX)) were administered vehicle daily. […]
After a 14-day dosing regimen, the animals were sacrificed under anesthesia (ketamine/xylazine, 87:13 mg/kg) and body weights were recorded. In addition, ventral prostate, seminal vesicles, and levator ani muscle were removed, cleaned of extraneous tissue, and individually weighed. Organ weight were normalized to body weight and expressed as a percentage of intact control. Blood was collected from the abdominal aorta under isoflurane anesthesia and allowed to clot. Serum was separated by centrifugation and stored at −80° C. prior to determination of serum hormone levels. Serum luteinizing hormone (LH) and follicle stimulating hormone (FSH) concentrations were determined by the Rat Pituitary Luminex Assay (Millipore, Billerica, Mass.) according to manufacturer's directions. The lower limit of quantitation for this assay was 3.2 pg/mL for LH and 32 pg/mL for FSH. Testosterone was measured by a Testosterone EIA (Alpco Diagnostics, Salem, N.H.) with a LLOQ of 0.08 ng/mL. Serum hormone values below the lower limit of quantitation (BLOQ) were omitted from analysis of group means. Therefore, the reported value for LH and T in the groups with samples BLOQ is higher than the actual value. This method of analysis provided the most conservative estimate of LH and T suppression. Fisher's Least Significant Difference test was used to compare individual dose groups to the intact and ORX vehicle control groups. Significance was defined a priori as a P-value <0.05.

For `O=C(c1ccc(O)c(F)c1)N(c1ccc(O)cc1)c1ccc(F)cc1` [Compound IV, 3-fluoro-N-(4-fluorophenyl)-4-hydroxy-N-(4-hydroxyphenyl)benzamide], the “Cross-reaction with glucocorticoid receptor (GR)” value ([1]; FIG. 12A) was “does not; also recorded: did not”, the “Agonist or antagonist activity at GR” value ([1]; agonist and antagonist modes) was “did not display any agonist or antagonist activity” and the “Agonist or antagonist activity at FXR” value [2] was “did not display any agonist or antagonist activity”. The “Agonist or antagonist activity at PPAR-α” value [3] was “did not display any agonist or antagonist activity”, the “Agonist or antagonist activity at MR” value [4] was “did not display any agonist or antagonist activity” and the “Agonist or antagonist activity at RXR-α” value [5] was “did not display any agonist or antagonist activity”. The “Agonist or antagonist activity at PR” value [6] was “did not display any agonist or antagonist activity”, the “Cross-reaction with androgen receptor (AR)” value ([7]; FIG. 12B) was “does not; also recorded: did not” and the “Agonist or antagonist activity at AR” value ([7]; agonist and antagonist modes) was “did not display any agonist or antagonist activity”. For the same compound, the “Agonist or antagonist activity at PPAR-γ” value [8] was “did not display any agonist or antagonist activity”, the “Serum testosterone after dosing” value [9] was “No significant suppression” and the Serum testosterone ([10]; Intact rats, 10 mg/kg per day s.c., 14 days) was “BLOQ”. The Serum testosterone ([10]; Intact rats, 30 mg/kg per day s.c., 14 days) was “BLOQ”, the Serum testosterone ([10]; ORX rats, all dose groups (0.3-30 mg/kg/day)) was “BLOQ” and the “Suppression of serum testosterone” value ([10]; intact male rats, 3, 10 and 300 mg/kg, after 24 h, 72 h and 168 h (FIG. 9)) was “Rapid and potent suppression”. The “Doses with significant reduction of FSH levels” value ([10]; intact rats, 14 days s.c.) was no less than 10 mg/kg/day and the “Doses with significant reduction of testosterone levels” value ([10]; intact rats, 14 days s.c.) was no less than 3 mg/kg per day.
